Test results reported in patent publication US20220265775A1, “COMPOSITIONS AND METHODS FOR TREATING PULMONARY EDEMA OR LUNG INFLAMMATION” (priority 2019, published 2022).

Tests used:
[1] = system: Akt; experiment: Western blot of Akt phosphorylation in RLE-6TN cells under hyperoxia; format: cell-based, rat; details: hyperoxia for 24 hours, T3 added for 20 minutes, vs room air control and hyperoxia alone
Protocol: FIG. 12. T3-induced increase activation of Akt by phosphorylation. (A) T3 augmented phosphorylation of Akt (p-Akt). […] (C) The PI3K inhibitor wortmannin blocked the T3-induced increase in total cellular amount of HO-1 protein.
The cells were lysed in lysis buffer containing 20 mM Tris HCl (pH 7.5), 150 mM NaCl, 1 mM EDTA, 1 mM EGTA, 1% (vol/vol) Triton X-100 with protease inhibitors (1 mM PMSF, 2 μg/ml pepstatin, and 10 μg/ml each of aprotinin and leupeptin), and phosphatase inhibitors (2.5 mM sodium pyrophosphate, 1 mM β-glycerophosphate, and 1 mM Na3VO4). The lysate was drawn 10 times through a 25-gauge needle on ice for further lysis and then was centrifuged at 13,000 rpm for 15 minutes at 4° C. The supernatant was collected, and the protein concentrations were determined by use of the BCA protein assay kit (Sigma-Aldrich, St. Louis, Mo.). Immediately after this step, equal amounts of protein were subjected to Western blotting analysis.

[2] = Preliminary tolerability of intratracheal instillation of liothyronine sodium in rats; format: in vivo; details: preliminary studies, pH of >10.0 as supplied commercially
Protocol: Therefore, the liothyronine sodium and the vehicle were adjusted to neutral pH (6.0-8.0) with sterile 1.0 N HCl (Sigma-Aldrich, St. Louis, Mo.) added aseptically in a biosafety cabinet prior to intratracheal instillation into animals. Using aseptic technique, vials of liothyronine sodium were opened and the entire contents were transferred into sterile 1.5 mL Eppendorf tubes. 80-90 μL of 1.0 N HCl was added to the tube and gently vortexed, and the pH was measured using pH test strips (pH 4.5 to 10.0, Ricca Chemical Co., Arlington, Tex.). Additional HCl was titrated in gradually, as needed, until the pH was in the desired range. […] This solution was stored at 4° C. and used for up to 26 hours after pH adjustment procedure. […] The vehicle was also adjusted to neutral pH (6.0-8.0) with 1.0 N HCl as described above. Using aseptic technique the vehicle was filter sterilized and aliquoted into 21 sterile disposable tubes (5 mL each) and stored at 4° C., and a new tube was opened for each day of use. Normal Saline (0.9% Sodium Chloride Injection USP, B. Braun Medical, Inc., Bethlehem, Pa.), was stored at room temperature. A new package was opened for each day of use.

[3] = Single dose toxicokinetic (TK) study, intratracheal instillation of T3, serum total T3 by chemiluminescence assay; parameters: species or system Sprague-Dawley rats; details: Sprague-Dawley, rat; for AUC(0-t) / Cmax / Cmax_D / Tmax / Vz_F_obs: inhaled or intranasal
Protocol: Sixty animals (plus two spare animals/sex/group) were anesthetized and dosed via intratracheal instillation of test or control materials for five consecutive days. On the day after the last dose a terminal blood collection was performed for clinical pathology, after which animals were euthanized and a gross examination of all organs was performed by a board certified veterinary pathologist. Select tissues were collected for histopathology. […] Terminal blood collection was performed at two designated time points per animal up to 24 hours after administration for toxicokinetic evaluation. TK animals were euthanized without further evaluation after the final blood collection. All animals were acclimated for a minimum of seven days prior to the dosing procedure. Animals underwent baseline observations and examinations prior to the initiation of the study, and clinical observations and body weight monitoring were performed throughout the in-life portion of the study. All animals received the same dose volume (0.3 mL) of either test or control materials. This maximum feasible dose (MFD) is constrained by the maximum volume that can be safely and reproducibly (over five days) instilled into lungs of rats weighing 250 g to 350 g, which was determined in preliminary toxicology studies to be 0.3 mL. Actual doses delivered are reported as both μg/kg body weight and μg/gm wet lung weight. The toxicity phase animals were 72-135 days of age at the time of initial dosing. Males weighed between 256.52 g and 307.50 g with a mean±standard deviation of 286.74±11.77 g, and females weighed between 250.46 g and 299.01 g with a mean±standard deviation of 260.64±10.34 g. The TK phase animals were 68-144 days of age at the time of initial dosing. Males weighed between 261.23 g and 316.19 g; females weighed between 250.06 g and 280.32 g.
For toxicokinetic experiments, rats were anesthetized with combination of ketamine 40 mg/kg to 200 mg/kg and xylazine 1 mg/kg to 7 mg/kg, intraperitoneally (IP), to effect for dosing procedures, and dosed intratracheally with liothyronine sodium injection as previously described. Depending on the duration of time between dosing and the first or second blood collection time points, animals either had blood collected while still anesthetized under the injectable anesthetics, or if recovered, they were anesthetized with Isoflurane 2-5% and oxygen 1-1.5 L/minute by inhalation anesthesia via nose cone, as needed, to maintain adequate anesthesia depth (assessed by toe pinch). Topical proparicaine anesthetic ophthalmic solution was applied to each eye prior to performing the first blood collection and allowed time to take effect. Collection of serum samples for TK analysis was as described for serum chemistry samples above, and samples were stored at ≤−70° C. until assayed. Animals were euthanized with EUTHASOL (Virbac Corp., Fort Worth, Tex.) ≥86 mg/kg IP to effect following the final blood collection.
For assessment of serum T3 levels samples were sent to the Fairview University of Minnesota Medical Center East Bank Diagnostic Laboratory for analysis, a clinical laboratory certified by CLIA and CAP. Prior to sending serum samples to the analytical lab each sample was diluted 1:4 or 1:8 in normal (0.9%) saline. […] Samples were analyzed by a chemiluminescence assay for total triiodothyronine (T3).
An evaluation of the TK analysis was performed by Dick Brundage, PhD, University of Minnesota. Toxicokinetic parameters were estimated using Phoenix 64 WinNonlin pharmacokinetic software version 7.0. (Pharsight Corp., Mountain View, Calif.). A non-compartmental (NCA) approach consistent with the route of administration was used for parameter estimation. […] Whenever possible, mean concentrations were derived from three animals/gender/time point. Parameters were estimated using sampling times relative to the start of each dose administration. […]

N[C@@H](Cc1cc(I)c(Oc2ccc(O)c(I)c2)c(I)c1)C(=O)O [T3, triiodothyronine]
phosphorylation of Akt (p-Akt) [1]: augmented phosphorylation of Akt at Ser473
tolerability of intratracheal instillation [2]: do not tolerate
concentration at 15 min ([3]; in vivo, male rats, individual animals, 15 min, single intratracheal dose 2.7 μg (~10.0 μg/kg)): 2.44 ng/mL
Cl_F_obs ([3]; female): 30.10 mL/h
HL_Lambda_z ([3]; female): 2.85 h
AUC(0-t) ([3]; female): 64.1 ng·h/mL
Cmax ([3]; female): 16.5 ng/mL
Cmax_D ([3]; female): 6.12 ng/mL/µg
Tmax ([3]; female): 2 h
Vz_F_obs ([3]; female): 123.60 mL
Cl_F_obs ([3]; male): 74.29 mL/h
HL_Lambda_z ([3]; male): 3.17 h
AUC(0-t) ([3]; male): 25.4 ng·h/mL
Cmax ([3]; male): 6.6 ng/mL
Cmax_D ([3]; male): 2.44 ng/mL/µg
Tmax ([3]; male): 1 h
Vz_F_obs ([3]; male): 339.44 mL
